Experimental data from patent US9481709B2, “Boropeptide inhibitors of enteropeptidase and their uses in treatment of obesity, overweight and/or diseases associated with an abnormal fat metabolism” (OBE THERAPY BIOTECHNOLOGY, priority 2007, dated 2016).

Test: Effect on weight in a model of obesity induced by a hyperlipidic diet
Type: in vivo, mice
Settings: 40 mg/kg/day oral; for gain or loss of weight according to the initial weight, mean: high fat diet, Swiss male mice
Protocol: 1. Effect of OBE2001 on Weight
The aim of this first in vivo experiment is to determine the anti-obesity effect of OBE2001 in a model of obesity induced by a hyperlipidic diet in mice.
OBE2001 (Acetyl-Ala-Phe-BoroArg) was provided under salt form (molecular weight of 568.3 g/mol). Swiss male mice, 4 weeks of age, were divided into 2 groups of 10 animals each, receiving the following:
Administration of OBE2001 was carried out as a solution in water. Both OBE2001 or vehicle (water used a negative control) were administrated to the animals daily by the oral route in an administration of 5 ml/kg body weight.
Concerning the feeding of the animals, before the experiments (acclimation period), normal diet (reference No. 824050 SDSIDIETEX food) was available ad libitum during the acclimation period. 7 days before the beginning of the study, a hypercaloric High Fat diet ([…], 4.73 Kcal/g; reference 824053 SDSIDIETEX) was given to groups 1 and 2.
Animals were weighed daily from at D-8 (8 days before the beginning of the experiment) then from D-5 to the end of the study. From D1 (first day of the experiment), food was given ad libitum.

## CC(=O)N[C@@H](C)C(=O)N[C@@H](Cc1ccccc1)C(=O)N[C@@H](CCCNC(=N)N)B1OC2C[C@@H]3C[C@@H](C3(C)C)[C@]2(C)O1 (some centres unmarked) [OBE2001]
Significant from day 4, highly significant from day 8
  weight of treated mice versus control group: significantly lower
D1
  gain or loss of weight according to the initial weight, mean: -2.7 g
D2
  gain or loss of weight according to the initial weight, mean: -1.2 g
D3
  gain or loss of weight according to the initial weight, mean: -0.8 g
D4
  gain or loss of weight according to the initial weight, mean: 0.2 g
D5
  gain or loss of weight according to the initial weight, mean: 0.7 g
D6
  gain or loss of weight according to the initial weight, mean: 1.0 g
D7
  gain or loss of weight according to the initial weight, mean: 0.9 g
D8
  gain or loss of weight according to the initial weight, mean: 1.3 g
D9
  gain or loss of weight according to the initial weight, mean: 1.0 g
D10
  gain or loss of weight according to the initial weight, mean: 1.1 g
D11
  gain or loss of weight according to the initial weight, mean: 0.5 g
D12
  gain or loss of weight according to the initial weight, mean: 1.8 g
D13
  gain or loss of weight according to the initial weight, mean: 2.0 g
